Laboratory results taken from patent US11285127B2, “Compositions and methods for lowering triglycerides without raising LDL-C levels in a subject on concomitant statin therapy” (Amarin Pharmaceuticals Ireland Limited, priority 2013, dated 2022).

Test system: patients with fasting triglyceride levels >200 mg/dl and <500 mg/dl despite statin therapy
Experiment: 12-week study: lipid profile (TC, LDL-C, HDL-C, non-HDL-C, VLDL-C, VLDL-TG, RLP-C)
Type: in vivo, human
Settings: MITT
Description: Parameters (a)-(z) can be measured in accordance with any clinically acceptable methodology. For example, triglycerides, total cholesterol, HDL-C and fasting blood sugar can be sample from serum and analyzed using standard photometry techniques. VLDL-TG, LDL-C and VLDL-C can be calculated or determined using serum lipoprotein fractionation by preparative ultracentrifugation and subsequent quantitative analysis by refractometry or by analytic ultracentrifugal methodology. Apo A1, Apo B and hsCRP can be determined from serum using standard nephelometry techniques. Lipoprotein (a) can be determined from serum using standard turbidimetric immunoassay techniques. LDL particle number and particle size can be determined using nuclear magnetic resonance (NMR) spectrometry. Remnants lipoproteins and LDL-phospholipase A2 can be determined from EDTA plasma or serum and serum, respectively, using enzymatic immunoseparation techniques. Oxidized LDL, intercellular adhesion molecule-1 and interleukin-2 levels can be determined from serum using standard enzyme immunoassay techniques. These techniques are described in detail in standard textbooks, for example Tietz Fundamentals of Clinical Chemistry, 6th Ed. (Burtis, Ashwood and Borter Eds.), WB Saunders Company.
A multi-center, placebo-controlled, randomized, double-blind, 12-week study was performed to evaluate the efficacy and safety of >96% E-EPA in patients with fasting triglyceride levels >200 mg/dl and <500 mg/dl despite statin therapy (the mean of two qualifying entry values needed to be >185 mg/dl and at least one of the values needed to be >200 mg/dl). The primary objective of the study was to determine the efficacy of >96% E-EPA 2 g daily and 4 g daily, compared to placebo, in lowering fasting TG levels in patients with high risk for cardiovascular disease and with fasting TG levels 200 mg/dl and <500 mg/dl, despite treatment to LDL-C goal on statin therapy.
The secondary objectives of this study were the following: • 1. To determine the safety and tolerability of >96% E-EPA 2 g daily and 4 g daily; • 2. To determine the effect of >96% E-EPA on lipid and apolipoprotein profiles including total cholesterol (TC), non-high-density lipoprotein cholesterol (non-HDL-C), low density lipoprotein cholesterol (LDL-C), high density lipoprotein cholesterol (HDL-C), and […]; • 3. To determine the effect of >96% E-EPA on lipoprotein associated phospholipase A2 (Lp-PLA2) from baseline to week 12; • 4. To determine the effect of >96% E-EPA on low-density lipoprotein (LDL) particle number and size; • 5. To determine the effect of >96% E-EPA on oxidized LDL; • 6. To determine the effect of >96% E-EPA on fasting plasma glucose (FPG) and hemoglobin A1c (HbA1c); • 7. To determine the effect of >96% E-EPA on insulin resistance; • 8. To determine the effect of >96% E-EPA on high-sensitivity C-reactive protein (hsCRP); • 9. To determine the effects of >96% E-EPA 2 g daily and 4 g daily on the incorporation of fatty acids into red blood cell membranes and into plasma phospholipids; • 10. To explore the relationship between baseline fasting TG levels and the reduction in fasting TG levels; and • 11. To explore the relationship between changes of fatty acid concentrations in plasma and red blood cell membranes, and the reduction in fasting TG levels.
The primary efficacy variable for the double-blind treatment period was percent change in TG from baseline to Week 12 endpoint. […]

[1] = AMR 101 2 g + statin, Atorva subgroup
[2] = AMR 101 2 g + statin, Rosuva subgroup
[3] = AMR 101 2 g + statin, Simva subgroup
[4] = AMR 101 2 g + statin, Statin Potency High
[5] = AMR 101 2 g + statin, Statin Potency Low
[6] = AMR 101 2 g + statin, Statin Potency Medium
[7] = AMR 101 2 g + statin, Diabetes No, Week 12 endpoint
[8] = AMR 101 2 g + statin, Diabetes Yes, Week 12 endpoint
[9] = AMR 101 2 g + statin, Non-statin Washout No, Week 12 endpoint
[10] = AMR 101 2 g + statin, Non-statin Washout Yes, Week 12 endpoint
[11] = AMR 101 2 g + statin, baseline TG tertile Highest (≥289.5 mg/dL), Week 12 endpoint
[12] = AMR 101 2 g + statin, baseline TG tertile Lowest (<230.5 mg/dL), Week 12 endpoint
[13] = AMR 101 2 g + statin, baseline TG tertile Middle (230.5 to <289.5 mg/dL), Week 12 endpoint
[14] = AMR101 2 g/d + statin, Week 12 endpoint
[15] = AMR101 2 g/d + statin, percent change from baseline to Week 12 endpoint
[16] = AMR 101 4 g + statin, Atorva subgroup

Structure (SMILES): CC/C=C\C/C=C\C/C=C\C/C=C\C/C=C\CCCC(=O)OCC [AMR101, ethyl eicosapentaenoate]
- LDL-C Median % chg from BL [1]: 4.9%
- LDL-C, Diff from pbo (Hodges-Lehmann median difference) [1]: 1.1
- LDL-C, EOT (Week 12 endpoint) median [1]: 88.0
- Non-HDL-C Median % chg from BL [1]: 10.5%
- Non-HDL-C, Diff from pbo (Hodges-Lehmann median difference) [1]: 2.0
- Non-HDL-C, EOT (Week 12 endpoint) median [1]: 135.0
- LDL-C Median % chg from BL [2]: 4.3%
- LDL-C, Diff from pbo (Hodges-Lehmann median difference) [2]: −4.2
- LDL-C, EOT (Week 12 endpoint) median [2]: 87.0
- Non-HDL-C Median % chg from BL [2]: 2.7%
- Non-HDL-C, Diff from pbo (Hodges-Lehmann median difference) [2]: −9.0
- Non-HDL-C, EOT (Week 12 endpoint) median [2]: 133.0
- LDL-C Median % chg from BL [3]: 1.8%
- LDL-C, Diff from pbo (Hodges-Lehmann median difference) [3]: −4.8
- LDL-C, EOT (Week 12 endpoint) median [3]: 88.0
- Non-HDL-C Median % chg from BL [3]: 0.0%
- Non-HDL-C, Diff from pbo (Hodges-Lehmann median difference) [3]: −6.8
- Non-HDL-C, EOT (Week 12 endpoint) median [3]: 133.5
- LDL-C Median % chg from BL [4]: 3.1%
- LDL-C, Diff from pbo (Hodges-Lehmann median difference) [4]: −1.7
- LDL-C, EOT (Week 12 endpoint) median [4]: 91.0
- Non-HDL-C Median % chg from BL [4]: 5.4%
- Non-HDL-C, Diff from pbo (Hodges-Lehmann median difference) [4]: −3.5
- Non-HDL-C, EOT (Week 12 endpoint) median [4]: 142
- LDL-C Median % chg from BL [5]: 0.9%
- LDL-C, Diff from pbo (Hodges-Lehmann median difference) [5]: 7.1
- LDL-C, EOT (Week 12 endpoint) median [5]: 95.0
- Non-HDL-C Median % chg from BL [5]: −2.2%
- Non-HDL-C, Diff from pbo (Hodges-Lehmann median difference) [5]: 3.3
- Non-HDL-C, EOT (Week 12 endpoint) median [5]: 135
- LDL-C Median % chg from BL [6]: 2.4%
- LDL-C, Diff from pbo (Hodges-Lehmann median difference) [6]: −5.9
- LDL-C, EOT (Week 12 endpoint) median [6]: 85.0
- Non-HDL-C Median % chg from BL [6]: 1.7%
- Non-HDL-C, Diff from pbo (Hodges-Lehmann median difference) [6]: −7.1
- Non-HDL-C, EOT (Week 12 endpoint) median [6]: 133
- LDL-C Diff from pbo (median % chg, Hodges-Lehmann) [7]: −3.1%
- LDL-C EOT Median [7]: 88.0 mg/dL
- LDL-C Median % chg from BL [7]: 2.6%
- Non-HDL-C Diff from pbo (median % chg, Hodges-Lehmann) [7]: −8.6%
- Non-HDL-C EOT Median [7]: 133 mg/dL
- Non-HDL-C Median % chg from BL [7]: −0.7%
- LDL-C Diff from pbo (median % chg, Hodges-Lehmann) [8]: −3.8%
- LDL-C EOT Median [8]: 87.0 mg/dL
- LDL-C Median % chg from BL [8]: 2.2%
- Non-HDL-C Diff from pbo (median % chg, Hodges-Lehmann) [8]: −4.4%
- Non-HDL-C EOT Median [8]: 135 mg/dL
- Non-HDL-C Median % chg from BL [8]: 5.1%
- LDL-C Diff from pbo (median % chg, Hodges-Lehmann) [9]: −1.2%
- LDL-C EOT Median [9]: 91.5 mg/dL
- LDL-C Median % chg from BL [9]: 3.5%
- Non-HDL-C Diff from pbo (median % chg, Hodges-Lehmann) [9]: −4.6%
- Non-HDL-C EOT Median [9]: 135 mg/dL
- Non-HDL-C Median % chg from BL [9]: 3.8%
- LDL-C Diff from pbo (median % chg, Hodges-Lehmann) [10]: −6.3%
- LDL-C EOT Median [10]: 85.0 mg/dL
- LDL-C Median % chg from BL [10]: 2.2%
- Non-HDL-C Diff from pbo (median % chg, Hodges-Lehmann) [10]: −6.9%
- Non-HDL-C EOT Median [10]: 133 mg/dL
- Non-HDL-C Median % chg from BL [10]: 0.0%
- LDL-C Diff from pbo (median % chg, Hodges-Lehmann) [11]: −2.0%
- LDL-C EOT Median [11]: 85.0
- LDL-C Median % chg from BL [11]: 1.7%
- Non-HDL-C Diff from pbo (median % chg, Hodges-Lehmann) [11]: −5.0%
- Non-HDL-C EOT Median [11]: 150
- Non-HDL-C Median % chg from BL [11]: 3.0%
- LDL-C Diff from pbo (median % chg, Hodges-Lehmann) [12]: −5.7%
- LDL-C EOT Median [12]: 92.0
- LDL-C Median % chg from BL [12]: 3.1%
- Non-HDL-C Diff from pbo (median % chg, Hodges-Lehmann) [12]: −4.2%
- Non-HDL-C EOT Median [12]: 129
- Non-HDL-C Median % chg from BL [12]: 6.9%
- LDL-C Diff from pbo (median % chg, Hodges-Lehmann) [13]: −2.6%
- LDL-C EOT Median [13]: 86.5
- LDL-C Median % chg from BL [13]: 3.1%
- Non-HDL-C Diff from pbo (median % chg, Hodges-Lehmann) [13]: −7.0%
- Non-HDL-C EOT Median [13]: 132
- Non-HDL-C Median % chg from BL [13]: −1.2%
- HDL-C Week 12 EP Median (IQR) (AMR101 2 g/d + statin): 38.0 (11.0) mg/dL
- LDL-C Week 12 EP Median (IQR) (AMR101 2 g/d + statin): 87.0 (27.0) mg/dL
- Non-HDL-C Week 12 EP Median (IQR) (AMR101 2 g/d + statin): 134.0 (41.0) mg/dL
- RLP-C Week 12 EP Median (IQR) (AMR101 2 g/d + statin): 11.0 (7.0) mg/dL
- Total cholesterol Week 12 EP Median (IQR) (AMR101 2 g/d + statin): 175.0 (44.0) mg/dL
- VLDL-C Week 12 EP Median (IQR) (AMR101 2 g/d + statin): 44.0 (25.0) mg/dL
- VLDL-TG Week 12 EP Median (IQR) (AMR101 2 g/d + statin): 168.0 (98.0) mg/dL
- HDL-C Percent change from Baseline Median (IQR) [14]: 0 (19.5) %
- LDL-C Percent change from Baseline Median (IQR) [14]: 2.4 (26.1) %
- Non-HDL-C Percent change from Baseline Median (IQR) [14]: 2.4 (26.1) %
- RLP-C Percent change from Baseline Median (IQR) [14]: −11.1 (40.0) %
- Total cholesterol Percent change from Baseline Median (IQR) [14]: 2.1 (19.6) %
- VLDL-C Percent change from Baseline Median (IQR) [14]: 1.6 (54.6) %
- VLDL-TG Percent change from Baseline Median (IQR) [14]: −2.1 (48.9) %
- HDL-C Difference from placebo Estimated median [15]: −2.2%
- LDL-C Difference from placebo Estimated median [15]: −3.6%
- Non-HDL-C Difference from placebo Estimated median [15]: −5.5%
- RLP-C Difference from placebo Estimated median [15]: −16.7%
- Total cholesterol Difference from placebo Estimated median [15]: −4.8%
- VLDL-C Difference from placebo Estimated median [15]: −10.5%
- VLDL-TG Difference from placebo Estimated median [15]: −11.3%
- LDL-C Median % chg from BL [16]: 9.0%
- LDL-C, Diff from pbo (Hodges-Lehmann median difference) [16]: 2.5
- LDL-C, EOT (Week 12 endpoint) median [16]: 82.5
- Non-HDL-C Median % chg from BL [16]: −6.3%
